Assay results reported in US7365057B2, “Modified 2′ and 3′-nucleoside prodrugs for treating Flavivridae infections” (priority 2002, dated 2008).

Columns and labels:
HCV = details: ribavirin alone; Davis, Gastroenterology 2000; cited from earlier work
[1] = system: Vero 76, African green monkey kidney cells

| Compound | effect on serum levels of HCV-RNA (HCV) | patients in whom serum amino transferase levels are reduced to normal (HCV) [%] | CC50 (MT-4) [µM] | CC50 [1] [µM] | CC50 (BHK) [µM] |
| --- | --- | --- | --- | --- | --- |
| NC(=O)c1ncn([C@@H]2O[C@H](CO)[C@@H](O)[C@H]2O)n1 [Ribavirin, 1-β-D-ribofuranosyl-1-1,2,4-triazole-3-carboxamide] | does not lower serum levels of HCV-RNA | 40 |  |  |  |
| β-D-2′-C-methyl-7-methyl-6-phenyl-3,3a,5,8a-tetrahydro-1,3,4,5,7a-penta-aza-s-indacen-8-one [Compound F] |  |  | > 100 | > 100 | > 100 |
